Here are results for five compounds from patent publication US20260265694A1, “USE OF A VITISIN COMPOUND FOR THE PRODUCTION OF HEMATOPOIETIC CELLS” (ETABLISSEMENT FRANCAIS DU SANG, priority 2022, published 2026).

For the first assay, the system named is CD34+ cells from peripheral blood. As to the kind of experiment: AMPLIFICATION PROTOCOL: ex vivo amplification of hematopoietic progenitors. It is filed as cell-based, human. To be noted: 10 μM, FIG. 1. On the procedure: This is a strategy for the amplification of hematopoietic progenitors. The culture is formed as follows: CD34^+ cells from peripheral blood are isolated (as indicated in section II.A.1), and cultured for 12 days in Stem Span II medium (Stem Cell Technologies) supplemented with cytokines: SCF 100 ng/mL, FLT3-L 100 ng/mL, TPO 20 ng/mL, G-CSF 10 ng/mL. The amplification product is analyzed by quantification of proliferation (count on Malassez slides) and phenotypic analysis of CD34^+ cell subpopulations by flow cytometry. […] Vitisin B is also compared with the following stilbene-type molecules at 10 μM concentration: Resveratrol, Pallidol, E-Viniferin, Ampelopsin, Oxyresveratrol, Picateatannol, Gnetol
At the end of the hematopoietic cell amplification protocol, an analysis of cell proliferation and amplification of immature and committed cell populations is performed.
Cell proliferation is evaluated by counting cells on Malassez slides with Trypan blue exclusion of dead cells.
The amplification of cell populations is based on a phenotypic analysis relating to the evolution of the expression of membrane markers CD34 and CD133 by flow cytometry. These markers make it possible to define more or less immature cell populations organized hierarchically as follows: CD34^+CD133^+->CD34^+CD133^neg->CD34^negCD133^neg. To this end, cells are incubated with anti-CD34 (1:100,000) (BD Pharmingen) and anti-CD133 (1:100,000) (BD Pharmingen) antibodies for 15 minutes. The cells are then rinsed with a PBS solution and centrifuged (430×g, 10 min, 4° C.). After resuspension of the cell pellets in PBS, the cells are analyzed by flow cytometry (FACSCantoll, Becton Dickinson, San Jose, CA).
The proportions of each phenotypic population thus observed and the total amount of cells make it possible to calculate the rate of amplification of the most immature cells (CD34^+CD133+) compared with the amplification of more committed progenitors (CD34^+CD133^neg and CD34^negCD133^neg).
Take `Oc1ccc(C=Cc2cc(O)cc(O)c2)cc1` [RESVERATROL, Resveratrol]: the “amplification of the CD34+CD133neg subpopulation (erythrocyte potential)” value is “no effect”.

Staying with this assay, now noted: 10 μM, FIG. 2.
On to `O=C1c2c(O)cc(O)cc2O[C@H](c2cc(O)c(O)c(O)c2)[C@H]1O` [AMPELOPSIN, Ampelopsin], for which the “effect on the proportion and total amount of CD34+CD133neg cells” value (shortened to “effect”) was “only vitisin B has a convincing effect”.

Regarding `Oc1ccc(C=Cc2cc(O)cc(O)c2)cc1` [RESVERATROL, Resveratrol], the “effect” value is recorded as “only vitisin B has a convincing effect”.

Regarding `Oc1ccc(/C=C/c2cc(O)cc3c2[C@@H](c2cc(O)cc(O)c2)[C@H](c2ccc(O)cc2)O3)cc1` [E-VINIFERIN, E-Viniferin], the “effect” value was “only vitisin B has a convincing effect”.

Turning to `Oc1cc(O)cc(/C=C/c2ccc(O)cc2O)c1` [OXYRESVERATROL, Oxyresveratrol], the “effect” value is given as “only vitisin B has a convincing effect”.

In the case of `Oc1cc(O)cc(/C=C/c2c(O)cccc2O)c1` [GNETOL, Gnetol], the “effect” value is “only vitisin B has a convincing effect”.
